The values that follow are results of earlier work, collected in patent US10603401B2, “Dressing system” (Edixomed Limited, priority 2015, dated 2020).

The conditions of this series: healthy 70 kg-adult.
Regarding `COC(=O)[C@H]1[C@@H](OC(=O)c2ccccc2)C[C@@H]2CC[C@H]1N2C` [cocaine], the “Generally accepted safe dosage for topical anaesthesia” value (shortened to “Generally accepted safe dosage”) is recorded as 200 mg. In the case of `CCN(CC)CC(=O)Nc1c(C)cccc1C` [lidocaine], the “Generally accepted safe dosage” value is listed as 750 mg. In the case of `CCCCNc1ccc(C(=O)OCCN(C)C)cc1` [tetracaine], the “Generally accepted safe dosage” value is recorded as 50 mg.
